Results: patent US7829591B2, “Flavanone compound and uses thereof” (Pokka Corporation, priority 2003, dated 2010)

System: breast cancer cells (MCF-7)
Assay: Breast cancer cell proliferation-inhibition test
Type: cell-based
Details: for Relative Value of Living Cells: 0.1 nM estradiol, Control 1 at 0 day = 1; for inhibiting effect on the proliferation of breast cancer cells (in words): 20 μM, compared with Control 1
Procedure: When breast cancer cells (MCF-7) are cultured, if estradiol (or 17β-estradiol) having a cell-proliferation accelerating action, is added thereto, the proliferation of breast cancer cells can be simply promoted in a short period. This phenomenon was utilized so as to examine the effect of each of Compounds 1 to 4 and the like on the proliferation inhibition of breast cancer cells. That is, first of all, each of Compounds 1 to 4 was diluted with dimethyl sulfoxide to prepare a sample solution. Thereafter, 2×10^3 of MCF-7 were inoculated in each well of a 96-well plate, and estradiol and the sample solution were added thereto after 4 hours. Estradiol was added to each compartment so that the final concentration of estradiol can be 0.1 nM, and the final concentration of the sample solution can be 0.2 μM, 2 μM, or 20 μM. After incubation for a predetermined period of time (three or five days), each of the media was replaced with a new medium, and an enzyme solution (Cell counting Kit-8: Wako) was added to the new medium in an amount of 10% of the new medium. After maintained the medium in an incubator at a temperature of 37° C. for two hours, the absorbance of the medium was determined at a wavelength of 450 nm (a reference wave length of 630 nm) by means of a spectrophotometer so as to quantify the number of living cells in each compartment.
As for the compartment whose incubation period is predetermined to be five days, on the third day of the incubation, the medium was replaced with a new medium, and thereafter, estradiol and a sample solution were added to the new medium, and the incubation was continued till fifth day. As for the compartment whose incubation period is predetermined to be 0 day, at four hours after the cells were inoculated, an enzyme solution was added to the medium. The medium was maintained in an incubator at a temperature of 37° C. for two hours, followed by determining the absorbance.
Instead of Compounds 1 to 4, eriodictyol was used to determine the absorbance according to a similar procedure to the above-mentioned one, and thus the number of living cells in each compartment was quantified. Furthermore, Control 1 to which neither estradiol nor a sample had been added was used to determine the absorbance according to a similar procedure to the above-mentioned one, and thus the number of living cells in each compartment was quantified, while Control 2 to which no sample had been added was used to determine the absorbance according to a similar procedure to the above-mentioned one, and thus the number of living cells in each compartment was quantified.
When it is assumed that the number of living cells of Control 1 as quantified after a zero-day incubation period is 1, the relative value of living cells as quantified in each of the runs mentioned above is shown in Table 2. Incidentally, each of values shown in Table 2 is the average value and standard deviation of values obtained from eight wells.

[1] = 0.2 μM sample, after 3-days incubation
[2] = 0.2 μM sample, after 5-days incubation
[3] = 0.2 μM sample, on 0-day incubation, mean ± SD of eight wells
[4] = 2 μM sample, after 3-days incubation
[5] = 2 μM sample, after 5-days incubation
[6] = 2 μM sample, on 0-day incubation
[7] = 20 μM sample, after 3-days incubation
[8] = 20 μM sample, after 5-days incubation
[9] = 20 μM sample, on 0-day incubation

CC(C)=CCC/C(C)=C/Cc1c([C@@H]2CC(=O)c3c(cc(O)c(CC=C(C)C)c3O)O2)ccc(O)c1O [Compound 4, 5,7,3′,4′-tetrahydroxy-6-(3′″,3′″-dimethylallyl)-2′-C-geranylflavanone]
Relative Value of Living Cells [1]: 2.97 ± 0.27
Relative Value of Living Cells [2]: 6.30 ± 0.54
Relative Value of Living Cells [3]: 0.99 ± 0.04
Relative Value of Living Cells [4]: 3.03 ± 0.30
Relative Value of Living Cells [5]: 6.41 ± 0.53
Relative Value of Living Cells [6]: 1.00 ± 0.07
Relative Value of Living Cells [7]: 1.27 ± 0.20
Relative Value of Living Cells [8]: 1.01 ± 0.12
Relative Value of Living Cells [9]: 0.98 ± 0.04
inhibiting effect on the proliferation of breast cancer cells (in words): cytotoxic effect upon breast cancer cells

CC(C)=CCC/C(C)=C/Cc1c(O)cc2c(c1O)C(=O)C[C@@H](c1ccc(O)c(O)c1)O2 [Compound 3, 5,7,3′,4′-tetrahydroxy-6-C-geranylflavanone]
Relative Value of Living Cells [1]: 2.94 ± 0.20
Relative Value of Living Cells [2]: 6.99 ± 0.66
Relative Value of Living Cells [3]: 0.99 ± 0.05
Relative Value of Living Cells [4]: 2.53 ± 0.30
Relative Value of Living Cells [5]: 5.38 ± 0.44
Relative Value of Living Cells [6]: 1.01 ± 0.05
Relative Value of Living Cells [7]: 1.21 ± 0.22
Relative Value of Living Cells [8]: 0.89 ± 0.12
Relative Value of Living Cells [9]: 0.96 ± 0.04
inhibiting effect on the proliferation of breast cancer cells (in words): cytotoxic effect upon breast cancer cells

CC(C)=CCC/C(C)=C/Cc1c([C@@H]2CC(=O)c3c(O)cc(O)cc3O2)ccc(O)c1O [Compound 1, 5,7,3′,4′-tetrahydroxy-2′-C-geranylflavanone]
Relative Value of Living Cells [1]: 2.86 ± 0.14
Relative Value of Living Cells [2]: 7.26 ± 0.48
Relative Value of Living Cells [3]: 0.98 ± 0.04
Relative Value of Living Cells [4]: 2.58 ± 0.11
Relative Value of Living Cells [5]: 6.01 ± 0.25
Relative Value of Living Cells [6]: 0.99 ± 0.05
Relative Value of Living Cells [7]: 2.22 ± 0.19
Relative Value of Living Cells [8]: 4.17 ± 0.50
Relative Value of Living Cells [9]: 1.01 ± 0.05

CC(C)=CCC/C(C)=C/Cc1cc([C@@H]2CC(=O)c3c(O)cc(O)cc3O2)cc(O)c1O [Compound 2, 5,7,3′,4′-tetrahydroxy-5′-C-geranylflavanone]
Relative Value of Living Cells [1]: 2.97 ± 0.37
Relative Value of Living Cells [2]: 6.83 ± 0.58
Relative Value of Living Cells [3]: 0.95 ± 0.04
Relative Value of Living Cells [4]: 2.68 ± 0.19
Relative Value of Living Cells [5]: 6.59 ± 0.50
Relative Value of Living Cells [6]: 0.99 ± 0.04
Relative Value of Living Cells [7]: 2.59 ± 0.21
Relative Value of Living Cells [8]: 5.59 ± 1.01
Relative Value of Living Cells [9]: 1.00 ± 0.07
